According to PubChem BioAssay AID588574 (Sanford-Burnham Center for Chemical Genomics, 2011):
Active and inactive are the calls of the source. How the calls were made is not given here.

The compounds below were run against Caspase-3 (Homo sapiens) + Caspase-9 (Homo sapiens) (UniProt P42574+P55211) (assay: inhibition of LZ-caspase-9 coupled caspase-3 activity – biochemical, fluorescence, uHTS hits, selectivity assay, dose response (AID 588574)). Details: LZ-caspase-9/caspase-3 coupled fluorogenic substrate.
Caspase-3 (Homo sapiens) + Caspase-9 (Homo sapiens), sequence (P42574 whole entry, looked up): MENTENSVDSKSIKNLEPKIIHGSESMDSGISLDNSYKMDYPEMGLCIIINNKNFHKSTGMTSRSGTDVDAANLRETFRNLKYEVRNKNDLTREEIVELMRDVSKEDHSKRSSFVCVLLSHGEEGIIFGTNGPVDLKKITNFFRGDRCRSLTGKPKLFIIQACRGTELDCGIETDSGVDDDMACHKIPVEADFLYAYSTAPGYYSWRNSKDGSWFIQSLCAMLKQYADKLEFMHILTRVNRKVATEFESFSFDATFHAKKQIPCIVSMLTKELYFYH
Caspase-3 (Homo sapiens) + Caspase-9 (Homo sapiens), sequence (P55211 whole entry, looked up): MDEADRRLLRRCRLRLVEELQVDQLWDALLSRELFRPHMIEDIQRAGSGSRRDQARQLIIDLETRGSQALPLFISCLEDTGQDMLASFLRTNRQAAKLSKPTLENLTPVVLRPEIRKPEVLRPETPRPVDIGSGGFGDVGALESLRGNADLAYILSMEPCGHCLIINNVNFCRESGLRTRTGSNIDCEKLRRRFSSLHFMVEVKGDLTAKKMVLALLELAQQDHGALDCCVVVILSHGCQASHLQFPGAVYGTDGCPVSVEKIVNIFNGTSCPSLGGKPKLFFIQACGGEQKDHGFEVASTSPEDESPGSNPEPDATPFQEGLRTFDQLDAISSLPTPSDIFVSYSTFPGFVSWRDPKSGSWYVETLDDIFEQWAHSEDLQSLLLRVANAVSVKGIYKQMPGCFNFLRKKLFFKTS

Row | Compound | IC50
1 | CC(C)c1ccc(/C=N/Nc2cc(N3CCOCC3)nc(N3CCOCC3)n2)cc1 | > 100 µM (inactive)
2 | CCN(CC)CCCNC1=C(Cl)C(=O)c2ccccc2C1=O | 16.1 µM
3 | CCC(=O)N(C1=C(NC)C(=O)c2ccccc2C1=O)C(C)C | 24.6 µM
4 | O=C(N/N=C/c1cc(Cl)cc([N+](=O)[O-])c1O)NC12CC3CC(CC(C3)C1)C2 | 9.15 µM
5 | Oc1cccc(/C=N/Nc2cc(N3CCCC3)nc(N3CCCC3)n2)c1 | 12.5 µM
6 | O=c1cc(N/N=C/c2ccccc2)[nH]c(=O)[nH]1 | 19.4 µM
7 | O=C1C(Cl)=C(NCCN2CCOCC2)C(=O)c2ccccc21 | 23.3 µM
8 | O=[N+]([O-])c1ccc(N/N=C/c2ccc(O)c(O)c2O)c(S(=O)(=O)N2CCOCC2)c1 | 20.4 µM
9 | O/C=c1\ccc2cccc3nc(C(F)(F)F)nc1c23 | 11.8 µM
10 | CCOC(=O)C1=C(c2ccccc2)NC(N)=NC1c1ccc(OCc2ccc(C(=O)OC)cc2)cc1 (stereo not drawn) | 16 µM
11 | CCN(CC)CCOC(=O)c1ccc(N/C=C(/C#N)c2nc(-c3cc4ccccc4oc3=O)cs2)cc1 | > 100 µM (inactive)
12 | COc1ccc(NC2=C(NCCO)C(=O)c3ccccc3C2=O)cc1 | 10.6 µM
13 | CCN(CC)CCOC(=O)c1ccc(N/C=C(/C#N)c2nc(-c3ccc(OC)c(OC)c3)cs2)cc1 | > 100 µM (inactive)
14 | CCOC(=O)C1=C(c2ccccc2)NC(N)=NC1c1ccc(OCc2ccc(Cl)cc2)c(OC)c1 (stereo not drawn) | 15.8 µM
15 | O=C1C(O)=C(O)C(=O)c2ccccc21 | 10.2 µM
16 | Oc1ccc(/C=N/Nc2cc(N3CCCC3)nc(N3CCCC3)n2)cc1O | 10.7 µM
17 | CC1=NN(c2ccc(Cl)cc2)C(=O)C1C(c1ccccc1O)c1c(C)[nH]n(-c2ccc(Cl)cc2)c1=O (stereo not drawn) | 46.1 µM
18 | CCCc1[nH]nc2c1C(c1ccc(OC)c(CSC3=NCCS3)c1)C(C#N)=C(N)O2 (stereo not drawn) | 14.3 µM
19 | CCN(CC)CCOC(=O)c1ccc(N/C=C(/C#N)c2nc(-c3ccc4c(c3)OCO4)cs2)cc1 | > 100 µM (inactive)
20 | Oc1ccc(/C=N\Nc2cc(N3CCOCC3)nc(N3CCOCC3)n2)c(O)c1 | 57.9 µM
21 | CCCCCCc1cc2cc(-c3nnc(-c4ccccc4OC)o3)c(=O)oc2cc1O | 14.7 µM

Further compounds by falling IC50, results first:

Row | IC50 | Compound
22 | 8.5 µM | CSc1ccc(C=NNc2ccc(S(=O)(=O)Nc3ccccc3C(=O)O)cc2[N+](=O)[O-])cc1
23 | 8.49 µM | CC(=O)N(Cc1ccc(F)cc1)C1=C(NCCc2ccccc2)C(=O)c2ccccc2C1=O
24 | 8.43 µM | O=C1C(Cl)=C(NCc2cccnc2)C(=O)c2ccccc21
25 | 8.21 µM | CC1=NN(c2ccc(C(F)(F)F)cn2)C(=O)C1
26 | 6.91 µM | Cc1ccc(NC2=C(NCCO)C(=O)c3ccccc3C2=O)cc1
27 | 6.79 µM | CN(C)c1cc(N/N=C/c2ccccc2C(F)(F)F)nc(N(C)C)n1
28 | 6.31 µM | CCCCCCc1cc2cc(-c3nnc(-c4ccccc4)o3)c(=O)oc2cc1O
29 | 6.08 µM | O=C1C(Cl)=C(NCCN2CCCCC2)C(=O)c2ccccc21
30 | 5.44 µM | Oc1ccc(/C=N/Nc2cc(N3CCCC3)nc(N3CCCC3)n2)cc1
31 | 5.3 µM | O=C1C(C2=C(O)c3ccccc3C2=O)=Nc2ccccc21
32 | 4.43 µM | CC(C)CCC(C)N=Cc1c(O)n(Cc2ccccc2)c(=O)c2ccccc12 (stereo not drawn)
33 | 4.31 µM | CC1(C)C=C2C(=NN(c3ccccc3)C(N)=C2C#N)CO1
34 | 3.91 µM | COc1ccc(/C=N/Nc2cc(N3CCCC3)nc(N3CCCC3)n2)cc1
35 | 3.53 µM | CN(C)c1cc(N/N=C\c2ccccc2)nc(N(C)C)n1
36 | 2.51 µM | Oc1ccccc1/C=N/Nc1cc(N2CCCC2)nc(N2CCCC2)n1
37 | 2.23 µM | Cc1[nH]n(-c2ccccc2)c(=O)c1/C=N/Nc1nncc(-c2ccccc2)n1
38 | 1.16 µM | COc1ccc(/C=N/Nc2cc(N(C)C)nc(N(C)C)n2)cc1
